According to US8481503B2, “Combination cancer therapy with an AKT inhibitor and other anticancer agents” (Merck Sharp & Dohme Corp., priority 2009, dated 2013):

What was measured:
Type in all cases: cell-based, Human
[1] = test system: Caspase-3/7; assay: Caspase-3/7 assay (Caspase-Glo 3/7) in A2780 cells, Compound A plus cytotoxic agents
Procedure: A2780 ovarian cancer cell line was cultured at 37° C. in complete medium (RPMI-1640 supplemented with 10% heat-inactivated FBS) and plated at 2,000 cells/well in 96 well assay plates (CORNING #3340). […] Then, Compound A and cytotoxic agents were added to each well and incubated at 37° C. in 5% CO2 for 24 hours. […] Medium was removed and 50 ul of Caspase-Glo reagents were added to wells. […] Relative Caspase-3/7 induction level was then calculated as the fold increase compared with the level of caspase-3/7 induction in the non-treatment group.

[2] = test system: A2780 ovarian cancer cell line; assay: in vitro proliferation/viability, combination Compound A and standard of care agents (CellTiter-Glo, CalcuSyn CI); conditions: combination partner SOC with Compound A, simultaneous 72 h
Procedure: (§1) A 2- or 3-fold serial dilution series of concentrated Compound A/carboplatin combinations was prepared, in which the concentration ratio of the two drugs was fixed and equal to […] ratio of Compound A and carboplatin determined in single agent titrations described above. Corresponding single agent dilution series of concentrated Compound A and carboplatin were also prepared. The three dilution series were then tested in the proliferation/viability assay as described above. The data were analyzed using CalcuSyn software (BIOSOFT) that calculates combination index (CI) for each combination of Compound A/carboplatin as described below. Combination index values were generated by inserting the interpolated values into the mutually exclusive equation derived by Chou and Talalay.
(§2) Synergistic interaction between compounds was analyzed by the median effect method described by Chou and Talalay (Adv. Enzyme Regul. 22: 27-55, 1984). Studies were first conducted to determine the potency of Compound A or combination partner (Drug-A) as single agent in inhibiting proliferation/viability of tumor cells. The IC50 values of each single agent were determined by fitting data to four parameter dose-response equation. Percent inhibition of cell growth was calculated relative to vehicle treated control wells. […] Y starts at Bottom and goes to Top with a sigmoid shape.
(§3) The fixed ratio experimental design was then used to compare of various Compound A/Drug-A combinations and corresponding single agent treatments.
(§4) D1 and D2 are known from the composition of the combination and D1c and D2c can be calculated from the equation; Dc=Dm*[fa/(1−fa)]^1/m where Dm is the concentration of drugs giving 50% effect, fa is the fraction affected, and m is the slope from the median effect plot of log (fa/fu) where fu is the fraction unaffected versus log (D). A CI equal to 1 signifies an additive effect, less than 1 a synergistic effect, and greater than 1 an antagonistic effect.
Human ovarian cancer cell (A2780) was obtained from the European Collection of Cell Culture (ECACC). A2780 cells were cultured in RPMI-1640 containing heat-inactivated 10% fetal bovine serum (FBS) in a humidified incubator at 37° C. in 5% CO2.
(§5) The cells were seeded at 2,000 cells/well in RPMI 1640 supplemented with 10% heat-inactivated FBS in 96 well tissue culture plates (CORNING #3340) and incubated at 37° C. in 5% CO2 overnight. On the next day Compound A, doxorubicin or the combination of the two agents was added as a 2-fold dilution series in RPMI containing 1% DMSO. The final DMSO concentration in each assay was 0.1%. The plates were then incubated at 37° C. in 5% CO2 for 72 hours. The number of viable cells was measured using CellTiter-Glo cell viability assay (Promega #G7571). The luminiscence signal was read using a ARVO-SX multimode plate reader (Perkin-Elmer). Combination index was determined by the same method as described in section T1.3.
as §5, with “camptothecin” for “doxorubicin”
The cells were seeded at 2,000 cells/well in RPMI 1640 supplemented with 10% heat-inactivated FBS in 96 well tissue culture plates (CORNING #3340) and incubated at 37° C. in 5% CO2 overnight. On the next day Compound A, 5-FU or the combination of the two agents was added as a 2-fold dilution series in RPMI containing 1% DMSO.

[3] = test system: Caspase-3/7; assay: Caspase-3/7 assay (Caspase-Glo 3/7) in NCI-H460 cells, Compound A plus cytotoxic agents
[4] = test system: NCI-H460 NSCLC cell line; assay: in vitro proliferation/viability, combination Compound A and standard of care agents (CellTiter-Glo, CalcuSyn CI); conditions: combination partner SOC with Compound A, simultaneous 72 h
Procedure: as §1, §2, §3, §4
Human non-small cell lung cancer cell (NCI-H460) was obtained from the American Type Culture Collection (ATCC). NCI-H460 cells were cultured in RPMI-1640 containing heat-inactivated 10% fetal bovine serum (FBS) in a humidified incubator at 37° C. in 5% CO2.
as §5, with “NCI-H460 NSCLC cell line was” for “The cells were”
as §5, with “NCI-H460 NSCLC cell line was” for “The cells were”, “camptothecin” for “doxorubicin”
NCI-H460 NSCLC cell line was seeded at 2,000 cells/well in RPMI 1640 supplemented with 10% heat-inactivated FBS in 96 well tissue culture plates (CORNING #3340) and incubated at 37° C. in 5% CO2 overnight.

[5] = combination partner SOC with Compound A 62.5 nM
[6] = combination partner SOC with Compound A 250 nM
[7] = combination partner SOC with Compound A 1000 nM

Row | Compound | Caspase-3/7 fold induction at 24 h (fold of DMSO control) [1, 5] | Caspase-3/7 fold induction at 24 h (fold of DMSO control) [1, 6] | Caspase-3/7 fold induction at 24 h (fold of DMSO control) [1, 7] | Combination index for above fractional inhibition, ED50 [2] | Combination index for above fractional inhibition, ED75 [2] | Combination index for above fractional inhibition, ED90 [2] | Caspase-3/7 fold induction at 24 h (fold of DMSO control) [3, 5] | Caspase-3/7 fold induction at 24 h (fold of DMSO control) [3, 6] | Caspase-3/7 fold induction at 24 h (fold of DMSO control) [3, 7] | Combination index for above fractional inhibition, ED50 [4] | Combination index for above fractional inhibition, ED75 [4] | Combination index for above fractional inhibition, ED90 [4]
1 | CC[C@@]1(O)C(=O)OCc2c1cc1n(c2=O)Cc2cc3ccccc3nc2-1 [Camptothecin, 4-ethyl-4-hydroxy-1H-pyrano[3′,4′:6,7]indolizino[1,2-b]quinoline-3,14-(4H,12H)-dione] | 1.9 fold of DMSO control | 2.6 fold of DMSO control | 4.0 fold of DMSO control | 0.56 | 0.40 | 0.29 | 1.2 fold of DMSO control | 1.4 fold of DMSO control | 1.7 fold of DMSO control | 0.39 | 0.39 | 0.63
2 | O=c1[nH]cc(F)c(=O)[nH]1 [Compound 5-FU, 5-fluorouracil] | 1.5 fold of DMSO control | 1.7 fold of DMSO control | 2.5 fold of DMSO control | 0.68 | 0.54 | 0.53 | 1.2 fold of DMSO control | 1.3 fold of DMSO control | 1.4 fold of DMSO control | 0.35 | 0.30 | 0.37
3 | COc1cccc2c1C(=O)c1c(O)c3c(c(O)c1C2=O)C[C@@](O)(C(=O)CO)C[C@@H]3O[C@H]1C[C@H](N)[C@H](O)[C@H](C)O1 [Doxorubicin, (2S,4S)-4-(3-amino-2,3,6-trideoxy-α-L-lyxo-hexopyranosyloxy)-2,5,12-trihydroxy-2-hydroxyacetyl-7-methoxy-1,2,3,4-tetrahydrotetracene-6,11-dione] | 1.6 fold of DMSO control | 2.8 fold of DMSO control | 4.1 fold of DMSO control | 0.70 | 0.43 | 0.27 | 1.3 fold of DMSO control | 1.7 fold of DMSO control | 2.8 fold of DMSO control | 0.27 | 0.18 | 0.17
